Read-outs that look alike come from different tables or passages of the source.

For 8 compounds, IC50 results are on record in patent publication US8791123B2, “Substituted pyrazolo[1,5-a]pyrimidine compounds as Trk kinase inhibitors” (Array Biopharma, Inc., priority 2009, dated 2014).

Format in all cases: biochemical
Assay [1] has as its target TrkA (histidine-tagged recombinant human TrkA, cytoplasmic domain) (Homo sapiens (Human), UniProt P04629). Briefly: TrkA ELISA Assay. In outline: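 His-tagged human TrkA cytoplasmic domain phosphorylated poly(Glu,Ala,Tyr 6:3:1) coated at 0.025 mg/mL, with inhibitors present. Phosphotyrosine was detected with HRP-conjugated PY20 antibody (0.2 μg/mL) and TMB, read as absorbance at 450 nm after phosphoric acid stop.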
In general terms: An ELISA detects its analyte on a solid surface through an enzyme-linked reagent.

Assay [2] deals with GST-tagged human Jak3 kinase domain (Homo sapiens (Human), UniProt P52333). Put plainly: Jak3 Inhibition Assay (Omnia kinase assay). To be noted: Table 2; 500 μM ATP. As to the method:
(§1) The assays described in Examples C, D, E and F for the determination of JAK1, JAK2, JAK3 and Tyk2 kinase activity, respectively, utilized the Omnia® Kinase fluorescence peptide substrate-based technology (Invitrogen). […] The reactions were therefore read at excitation 360 nm and emission was measured at 485 nm every 50 seconds for 45 minutes using a PerkinElmer EnVision Multilabel Plate Reader.
(§2) The final buffer conditions for each of the JAK1, JAK2, JAK3 and Tyk2 assays were as follows: 25 mM HEPES, pH 7.4, 10 mM MgCl2, 0.01% Triton X-100 and 1 mM DTT.
(§3) Compounds were prepared at 50× the final concentration in DMSO by conducting 3-fold serial dilutions from a 500-μM or 1000-μM intermediate dilution to give a 10-point dosing curve having a high dose of 10 or 20 μM. Two-μL aliquots of these were transferred to a fresh plate for a ten-fold intermediate dilution with assay buffer. Five-μL aliquots of the diluted compounds were then transferred to 20-μL of assay mixtures described in Examples C, D, E and F for a final concentration of DMSO of 2%. A standard or reference compound was typically included on each assay plate to validate that plate. For each plate, percent of control (POC) values were calculated for each well according to the following equation:
(§4) [formula] • where • Xmax=Average Uninhibited Controls • Xmin=Average Background IC50's were estimated from the POC's using a standard 4-parameter logistic model:
(§5) [formula] • where • A=Minimum Y (Bottom Asymptote) • B=Maximum Y (Top Asymptote) • C=EC50 • D=Slope Factor • X=Compound Concentration (nM) • Y=POC
(§6) The IC50 is defined as the concentration of inhibitor at which the POC equals 50 for the fitted curve.
Compounds of Formula I were screened for their ability to inhibit Jak3 using the general enzyme inhibition assay method, in which the assay mixture contained 500 μM ATP, 10 μM Omnia® Y7 peptide (Catalog # IVGN KNZ3071C, Invitrogen Corporation, Carlsbad, Calif.) and 1.5 nM Jak3 in a total volume of 20 μL. GST-tagged human Jak3 kinase domain comprising amino acids 781-1124 was purchased from Invitrogen Corporation, Carlsbad, Calif. (catalog # IVGN PV3855).

The target in assay [3] is Human Tyk2 kinase domain (Homo sapiens (Human), UniProt P29597). Put plainly: Tyk2 Inhibition Assay (Omnia kinase assay). The settings on record: Table 2; 500 μM ATP. As to the method: as §1, §2, §3, §4, §5, §6
Human Tyk2 kinase domain, sequence (P29597 886-1187): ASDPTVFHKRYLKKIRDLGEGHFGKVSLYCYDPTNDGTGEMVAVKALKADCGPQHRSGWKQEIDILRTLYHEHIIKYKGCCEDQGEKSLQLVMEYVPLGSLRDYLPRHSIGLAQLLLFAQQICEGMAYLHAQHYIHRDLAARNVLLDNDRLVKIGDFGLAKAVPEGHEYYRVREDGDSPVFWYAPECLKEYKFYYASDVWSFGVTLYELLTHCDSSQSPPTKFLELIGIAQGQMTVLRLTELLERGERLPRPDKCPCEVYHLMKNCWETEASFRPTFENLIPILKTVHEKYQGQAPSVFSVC
Compounds of Formula I were screened for their ability to inhibit Tyk2 using the general enzyme inhibition assay method, in which the assay mixture contained 500 μM ATP, 8 μM Omnia® Y12 peptide (Catalog # IVGN KPZ3121C; Invitrogen Corporation, Carlsbad, Calif.) and 1 nM Tyk2 in a total volume of 20 μL. Human Tyk2 kinase domain, comprising amino acids 886 to 1187 with 10 additional histidine residues (histidine tag) on the carboxy terminus, was expressed and purified from bacculovirus in-house at Array BioPharma Inc. (Boulder, Colo.). The histidine tag was cleaved after purification using standard conditions.

In assay [4] the target is Human Jak2 kinase domain (Homo sapiens (Human), UniProt O60674). Briefly: Jak2 Inhibition Assay (Omnia kinase assay). To be noted: 500 μM ATP.
Human Jak2 kinase domain, sequence (O60674 808-1132): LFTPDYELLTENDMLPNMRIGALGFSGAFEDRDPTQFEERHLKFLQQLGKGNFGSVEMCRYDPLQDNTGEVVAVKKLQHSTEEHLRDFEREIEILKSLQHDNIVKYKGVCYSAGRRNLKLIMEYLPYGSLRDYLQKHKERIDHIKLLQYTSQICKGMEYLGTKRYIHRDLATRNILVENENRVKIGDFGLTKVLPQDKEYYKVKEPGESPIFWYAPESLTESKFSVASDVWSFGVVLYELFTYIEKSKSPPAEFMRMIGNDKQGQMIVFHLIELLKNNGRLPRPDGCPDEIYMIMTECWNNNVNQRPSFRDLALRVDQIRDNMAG
Assay [5] has as its target GST-tagged human Jak1 kinase domain (Homo sapiens (Human), UniProt P23458). Briefly: Jak1 Inhibition Assay (Omnia kinase assay). The settings on record: Table 2; 500 μM ATP. As to the method: as §1, §2, §3, §4, §5, §6
Compounds of Formula I were screened for their ability to inhibit Jak1 using the general enzyme inhibition assay method, in which the assay mixture contained 500 μM ATP, 8 μM Omnia® Y12 peptide (Catalog # IVGN KPZ3121C; Invitrogen Corporation, Carlsbad, Calif.) and 5 nM Jak1 in a total volume of 20 μL. […] (catalog # IVGN PV4774).

Where [6] appears, read: Table 1, ELISA, 500 μM ATP, read-out: TrkA Enzyme IC50.
The mark [7] stands for this setting: Table 1, >1000 nM when >50% inhibition not observed at 1000 nM, read-out: Jak2 Enzyme IC50.

TrkA (histidine-tagged recombinant human TrkA, cytoplasmic domain), sequence (P04629 440-796): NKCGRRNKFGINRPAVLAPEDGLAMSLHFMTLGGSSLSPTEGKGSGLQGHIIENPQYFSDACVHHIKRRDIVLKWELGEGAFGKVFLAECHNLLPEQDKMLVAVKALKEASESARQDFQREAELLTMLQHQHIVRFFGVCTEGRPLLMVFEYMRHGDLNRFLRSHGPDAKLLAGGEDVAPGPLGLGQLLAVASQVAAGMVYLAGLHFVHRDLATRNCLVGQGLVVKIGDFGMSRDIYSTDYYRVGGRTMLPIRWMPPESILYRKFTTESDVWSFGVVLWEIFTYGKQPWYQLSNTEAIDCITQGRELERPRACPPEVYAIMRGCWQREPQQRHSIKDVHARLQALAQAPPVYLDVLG
GST-tagged human Jak3 kinase domain, sequence (P52333 781-1124): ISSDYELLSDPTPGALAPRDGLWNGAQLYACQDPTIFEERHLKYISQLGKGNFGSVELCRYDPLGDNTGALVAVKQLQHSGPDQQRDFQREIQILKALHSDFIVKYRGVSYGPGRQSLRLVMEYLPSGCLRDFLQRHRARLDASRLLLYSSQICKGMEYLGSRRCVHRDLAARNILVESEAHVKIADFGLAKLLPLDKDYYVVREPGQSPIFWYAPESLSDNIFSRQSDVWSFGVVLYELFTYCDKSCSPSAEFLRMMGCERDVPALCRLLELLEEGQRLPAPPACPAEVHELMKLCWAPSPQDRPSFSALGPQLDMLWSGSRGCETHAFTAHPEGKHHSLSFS
GST-tagged human Jak1 kinase domain, sequence (P23458 866-1154): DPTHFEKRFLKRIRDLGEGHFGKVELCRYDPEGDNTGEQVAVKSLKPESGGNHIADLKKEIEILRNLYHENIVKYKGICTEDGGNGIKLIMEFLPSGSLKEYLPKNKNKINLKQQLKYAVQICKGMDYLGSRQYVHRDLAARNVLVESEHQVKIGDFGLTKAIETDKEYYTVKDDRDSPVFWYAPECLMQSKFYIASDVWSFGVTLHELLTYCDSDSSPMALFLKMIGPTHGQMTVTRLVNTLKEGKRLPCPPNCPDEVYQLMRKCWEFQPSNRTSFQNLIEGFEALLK

On to `CNC(=O)c1cnn2ccc(N3CCC[C@@H]3c3cncc(F)c3)nc12` [Example 114, (R)-5-(2-(5-fluoropyridin-3-yl)pyrrolidin-1-yl)-N-methylpyrazolo[1,5-a]pyrimidine-3-carboxamide], for which the IC50 is 29.9 nM in assay [1] (setting [6]); 17.1 nM in assay [1] (Table 2, read-out: TrkA IC50); more than 1000 nM in assay [2]; more than 1000 nM in assay [3]; more than 1000 nM in assay [4] (setting [7]); more than 1000 nM in assay [4] (Table 2, read-out: Jak2 IC50). This compound yielded an IC50 in assay [5] of more than 1000 nM.

In the case of `O=C(NCC1CC1)c1cnn2ccc(N3CCC[C@@H]3c3cncc(F)c3)nc12` [Example 106, (R)-N-(cyclopropylmethyl)-5-(2-(5-fluoropyridin-3-yl)pyrrolidin-1-yl)pyrazolo[1,5-a]pyrimidine-3-carboxamide], the IC50 is 7.7 nM in assay [1] (setting [6]); 7.6 nM in assay [1] (Table 2, read-out: TrkA IC50); more than 1000 nM in assay [2]; more than 1000 nM in assay [3]; more than 1000 nM in assay [4] (setting [7]); more than 1000 nM in assay [4] (Table 2, read-out: Jak2 IC50). Also, the IC50 in assay [5] was more than 1000 nM.

For the compound `Cc1ncc(F)cc1[C@H]1CCCN1c1ccn2ncc(C(=O)NC3(C)CC3)c2n1` [Example 190, (R)-5-(2-(5-fluoro-2-methylpyridin-3-yl)pyrrolidin-1-yl)-N-(1-methylcyclopropyl)pyrazolo[1,5-a]pyrimidine-3-carboxamide], the IC50 in assay [1] (setting [6]) was 2.4 nM; in assay [1] (Table 2, read-out: TrkA IC50), 2.4 nM; in assay [2], more than 1000 nM; in assay [3], more than 1000 nM; in assay [4] (setting [7]), more than 1000 nM; in assay [4] (Table 2, read-out: Jak2 IC50) it was more than 1000 nM. The compound further showed an IC50 in assay [5] of more than 1000 nM.

As for `COc1ncc(F)cc1[C@H]1CCCN1c1ccn2ncc(C(=O)N[C@H]3CC[C@H](O)CC3)c2n1` [Example 140, 5-((R)-2-(5-fluoro-2-methoxypyridin-3-yl)pyrrolidin-1-yl)-N-((trans)-4-hydroxycyclohexyl)pyrazolo[1,5-a]pyrimidine-3-carboxamide], the results for the IC50 in assay [2] and in assay [5] were more than 1000 nM and 546 nM, respectively.

Regarding `CC1(NC(=O)c2cnn3ccc(N4CCC[C@@H]4c4cncc(F)c4)nc23)CC1` [Example 91, (R)-5-(2-(5-fluoropyridin-3-yl)pyrrolidin-1-yl)-N-(1-methylcyclopropyl)pyrazolo[1,5-a]pyrimidine-3-carboxamide], the 50% inhibitory concentration (IC50) is 3.2 nM in assay [1] (setting [6]); 3.2 nM in assay [1] (Table 2, read-out: TrkA IC50); more than 1000 nM in assay [2]; more than 1000 nM in assay [3]; more than 1000 nM in assay [4] (setting [7]); more than 1000 nM in assay [4] (Table 2, read-out: Jak2 IC50). Moreover, in assay [5], the IC50 was more than 1000 nM.

Take `CC(C)NC(=O)c1cnn2ccc(N3CCC[C@@H]3c3cncc(F)c3)nc12` [Example 93, (R)-5-(2-(5-fluoropyridin-3-yl)pyrrolidin-1-yl)-N-isopropylpyrazolo[1,5-a]pyrimidine-3-carboxamide]: the IC50 in assay [1] (setting [6]) was 5.1 nM; in assay [1] (Table 2, read-out: TrkA IC50), 5.1 nM; in assay [2] it was more than 1000 nM; in assay [3], more than 1000 nM; in assay [4] (setting [7]) it was more than 1000 nM; in assay [4] (Table 2, read-out: Jak2 IC50), more than 1000 nM. This compound came in with an IC50 in assay [5] of more than 1000 nM.

Turning to `C[C@H](NC(=O)c1cnn2ccc(N3CCC[C@@H]3c3cncc(F)c3)nc12)C1CC1` [Example 124, N-((S)-1-cyclopropylethyl)-5-((R)-2-(5-fluoropyridin-3-yl)pyrrolidin-1-yl)pyrazolo[1,5-a]pyrimidine-3-carboxamide], the half-maximal inhibitory concentration (IC50) was 2.9 nM in assay [1] (setting [6]); 2.9 nM in assay [1] (Table 2, read-out: TrkA IC50); more than 1000 nM in assay [2]; more than 1000 nM in assay [3]; 759 nM in assay [4] (setting [7]); 759 nM in assay [4] (Table 2, read-out: Jak2 IC50). This compound also displayed an IC50 in assay [5] of more than 1000 nM.

With `O=C(NC1(C(F)(F)F)CC1)c1cnn2ccc(N3CCC[C@@H]3c3cncc(F)c3)nc12` [Example 98, (R)-5-(2-(5-fluoropyridin-3-yl)pyrrolidin-1-yl)-N-(1-(trifluoromethyl)cyclopropyl)pyrazolo[1,5-a]pyrimidine-3-carboxamide], the IC50 in assay [1] (setting [6]) is 9 nM; in assay [1] (Table 2, read-out: TrkA IC50), 9 nM; in assay [2], more than 1000 nM; in assay [3], more than 1000 nM; in assay [4] (setting [7]), more than 1000 nM; in assay [4] (Table 2, read-out: Jak2 IC50) it was more than 1000 nM. Besides, the IC50 in assay [5] was more than 1000 nM.

As usually defined, the IC50 is the concentration that inhibits the measured activity by half.
